Legend:
[1] = tested on: Salmonella typhimurium on chicken skin; experiment: MIC on inoculated chicken skin, S. typhimurium; assay type: cell-based; settings: single agent; chicken skin immersed 10 min at 20° C.; concentration reducing final count below 17.5 cfu/cm^2
Method: To test the effectiveness of Biocidal Complex on other surfaces, a 5.7 cm^2 piece of chicken leg skin was placed in a holder made from a bottomless 50 ml centrifuge tube with a cap to support the skin test strip. Each skin sample was initially immersed in water. […] The bacteria were counted as described below. This value served as the control. The skin was then exposed to germicidal ultraviolet light for 5 min to sanitize the skin prior to inoculation. The sanitized skin was inoculated with 1 ml of a cell suspension containing 10^8 cfu/ml of either Salmonella typhimurium or Escherichia coli B and incubated for 30 min at 37° C. and 32° C., respectively. The inoculated skin samples were immersed in Biocidal Complex or in other combinations of ingredients at 20° C. for 10 min. […] The cotton swabs from both the control and treated skin were vortex-mixed for 1 min in a 0.1% peptone solution (pH 7.2). Then 0.5 ml of peptone solution was plated on MacConkey agar (Difco Laboratory, Detroit, Michigan). The plates were incubated for 24 hr at either 37° C. or 32° C. before counting the colonies. Microbial counts were expressed as cfu/cm^2, based on a total skin sample area of 5.7 cm^2. An initial level of contamination before treatment with Biocidal Complex (or water) was assessed for each sample. […] Contamination level of the inoculated skin after 30 min incubation time and immediately before treatment was 3,500,000 cfu/cm^2. The water-washed control skin ha 1,750 cfu/cm^2.

[2] = tested on: Salmonella typhimurium in broth culture; experiment: MIC in broth culture, S. typhimurium; assay type: cell-based; settings: single agent; nutrient broth, 24 hours at 37° C.; no detectable growth
Method: (§1) Nutrient broth was mixed with the complete Biocidal Complex or with combinations of ingredients, and then serially diluted two-fold in stages. Various combinations of biocidal ingredients and broth were inoculated with 0.1 ml of either Salmonella typhimurium or Escherichia coli B to give a microbial count of about 10^7 cfu/ml. Inoculated broth was then incubated for 24 hours at 37° C. for S. typhimurium, or at 32° C. for E. coli.

[3] = tested on: Escherichia coli in broth culture; experiment: MIC in broth culture, E. coli; assay type: cell-based, Escherichia coli B; settings: single agent; nutrient broth, 24 hours at 32° C.; no detectable growth
Method: as §1

[4] = tested on: Escherichia coli on chicken skin; experiment: MIC on inoculated chicken skin, E. coli; assay type: cell-based, Escherichia coli B; settings: single agent; chicken skin immersed 10 min at 20° C.; concentration reducing final count below 17.5 cfu/cm^2
Method: To test the effectiveness of Biocidal Complex on other surfaces, a 5.7 cm^2 piece of chicken leg skin was placed in a holder made from a bottomless 50 ml centrifuge tube with a cap to support the skin test strip. Each skin sample was initially immersed in water. […] The bacteria were counted as described below. This value served as the control. The skin was then exposed to germicidal ultraviolet light for 5 min to sanitize the skin prior to inoculation. The sanitized skin was inoculated with 1 ml of a cell suspension containing 10^8 cfu/ml of either Salmonella typhimurium or Escherichia coli B and incubated for 30 min at 37° C. and 32° C., respectively. The inoculated skin samples were immersed in Biocidal Complex or in other combinations of ingredients at 20° C. for 10 min. […] The cotton swabs from both the control and treated skin were vortex-mixed for 1 min in a 0.1% peptone solution (pH 7.2). Then 0.5 ml of peptone solution was plated on MacConkey agar (Difco Laboratory, Detroit, Michigan). The plates were incubated for 24 hr at either 37° C. or 32° C. before counting the colonies. Microbial counts were expressed as cfu/cm^2, based on a total skin sample area of 5.7 cm^2. An initial level of contamination before treatment with Biocidal Complex (or water) was assessed for each sample. […] Initial contamination level of the inoculated skin after 30 min incubation time and immediately prior to treatment was 140,000 cfu/cm^2.

[5] = tested on: bacteria endogenous to the city water system (biofilm on glass beads); experiment: Biofilm-contaminated glass beads column: organisms released in effluent; assay type: cell-based; set-up: key: −: No significant reduction in number of organisms.; +/−: A small or transient reduction in number of organisms.; +: A significant reduction in number of organisms.; +++: A reduction to below 10 organisms per ml effluent; settings: hydrogen peroxide 3% v/v, NaHSO4 0.06% w/v, thymol >0.1% w/v, iron chip, treated four days, 12 h static
Method: The beads were first contaminated with bacteria endogenous to the city water system for five days.
0.06% w/v; and thymol, >0.1% w/v. Additionally, an iron chip was added to the Biocidal Complex.
Glass beads with an established biofilm were treated, and samples collected and analyzed, as described above.

SMILES | MIC (%) [1] [%] | MIC (%) [2] [%] | MIC (%) [3] [%] | MIC (%) [4] [%] | Effect: qualitative changes in number of organisms released from established biofilms [5]
OCl [Sodium Hypochlorite, sodium hypochlorite, reference compound] | 1.0 | 0.025 | 0.013 | 1.0 | 
Cc1ccc(C(C)C)c(O)c1 [Thymol, thymol] | >0.1 | 0.04 | 0.02 | >0.1 | +/−
OO [H2O2, hydrogen peroxide] | 7.0 | 0.012 | 0.006 | 4.0 | −

Source: patent publication US6692757B1, “Multi-component, safe biocidal complex” (Board of Supervisors of Louisiana State University and …, priority 1999, dated 2004)
